Results: patent publication US10448639B2, “Fungicidal pyrazoles” (FMC CORPORATION, priority 2009, dated 2019)

Tests used:
Alternaria solani = experiment: Test C: tomato early blight, preventive spray on tomato seedlings, visual disease rating; conditions: tomato early blight, preventive spray; 100 = 100% disease control, 0 = no control
Septoria tritici = experiment: Test G: wheat leaf blotch, preventive spray on wheat seedlings, visual disease rating; conditions: wheat leaf blotch, preventive spray; 100 = 100% disease control, 0 = no control
[1] = system: Puccinia recondita f. sp. tritici; experiment: Test I: wheat leaf rust, preventive spray on wheat seedlings, visual disease rating; conditions: wheat leaf rust, preventive spray; 100 = 100% disease control, 0 = no control
Botrytis cinerea = experiment: Test B: tomato Botrytis, preventive spray on tomato seedlings, visual disease rating; conditions: tomato Botrytis, preventive spray; 100 = 100% disease control, 0 = no control
Septoria nodorum = experiment: Test F: Septoria glume blotch, preventive spray on wheat seedlings, visual disease rating; conditions: Septoria glume blotch on wheat, preventive spray; 100 = 100% disease control, 0 = no control
Phytophthora infestans = format: in vivo; conditions: tomato late blight, preventive spray; 100 = 100% disease control, 0 = no control
[2] = system: Erysiphe graminis f sp. tritici; experiment: Test J: wheat powdery mildew, preventive spray on wheat seedlings, visual disease rating; conditions: wheat powdery mildew, preventive spray; 100 = 100% disease control, 0 = no control
Rhizoctonia solani = experiment: Test E: turf brown patch, preventive spray on creeping bent grass (Agrostis sp.) seedlings, disease rating; format: in vivo; conditions: preventive spray, 100 = 100% disease control, 0 = no control
From the text: A dash (-) indicates no test results.

Plasmopara viticola = experiment: Test A: grape downy mildew, curative spray on inoculated grape seedlings, visual disease rating; format: in vivo; conditions: curative spray, 100 = 100% disease control, 0 = no control relative to controls
From the text: Upon removal, visual disease ratings were made. […] A dash (-) indicates no test results.

Compound	Test C rating (% disease control) (Alternaria solani)	Test G rating (% disease control) (Septoria tritici)	Test I rating (% disease control) [1]	Test B rating (% disease control) (Botrytis cinerea)	Test F rating (% disease control) (Septoria nodorum)	Test D rating (% disease control) (Phytophthora infestans)	Test J rating (% disease control) [2]	Test E rating (% disease control) (Rhizoctonia solani)	Test A rating (% disease control) (Plasmopara viticola)
COc1cc(Nc2c(-c3ccc(F)cc3F)c(C)nn2C)cc(OC)c1 [compound 2]	0%	0%	0%	1%	0%	0%	0%	0%	8%
Cc1nn(C)c(Nc2cc(F)cc(F)c2)c1-c1ccc(Cl)cc1 [compound 5]	25%	0%	0%	0%	0%	0%	0%	0%	36%
Cc1nn(C)c(Nc2ccc(F)cc2F)c1-c1ccc(Cl)cc1 [compound 4]	46%	98%	53%	87%	0%	0%	97%	0%	29%
